The numbers were not newly measured in PMC7496964 (Chemistry (Weinheim an Der Bergstrasse, Germany), 2020), which cites them from elsewhere.

The data set concerns the target human langerin ECD (Homo sapiens, UniProt Q9UJ71).

Sequence of human langerin ECD (Q9UJ71 65-328 limits assumed): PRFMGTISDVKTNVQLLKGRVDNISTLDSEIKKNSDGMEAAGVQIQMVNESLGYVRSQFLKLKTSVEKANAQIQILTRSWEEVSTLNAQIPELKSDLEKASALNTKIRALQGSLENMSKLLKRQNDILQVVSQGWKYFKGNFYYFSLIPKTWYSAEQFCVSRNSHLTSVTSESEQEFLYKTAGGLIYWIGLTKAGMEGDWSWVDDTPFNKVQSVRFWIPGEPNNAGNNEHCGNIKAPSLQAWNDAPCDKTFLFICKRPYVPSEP

1-α-azido B-trisaccharide [compound 10]: the “Langerin affinity (in words), literature” value is recorded as “weak affinity”.
